The target of series [1] is human glucagon-like peptide 1 receptor (GLP-1R) (human) (UniProt P43220).
Series [2] has as its target T1, human GLP-2 receptor (Homo sapiens, UniProt O95838, D470N).
T1 sequence (O95838 1-553 D470N): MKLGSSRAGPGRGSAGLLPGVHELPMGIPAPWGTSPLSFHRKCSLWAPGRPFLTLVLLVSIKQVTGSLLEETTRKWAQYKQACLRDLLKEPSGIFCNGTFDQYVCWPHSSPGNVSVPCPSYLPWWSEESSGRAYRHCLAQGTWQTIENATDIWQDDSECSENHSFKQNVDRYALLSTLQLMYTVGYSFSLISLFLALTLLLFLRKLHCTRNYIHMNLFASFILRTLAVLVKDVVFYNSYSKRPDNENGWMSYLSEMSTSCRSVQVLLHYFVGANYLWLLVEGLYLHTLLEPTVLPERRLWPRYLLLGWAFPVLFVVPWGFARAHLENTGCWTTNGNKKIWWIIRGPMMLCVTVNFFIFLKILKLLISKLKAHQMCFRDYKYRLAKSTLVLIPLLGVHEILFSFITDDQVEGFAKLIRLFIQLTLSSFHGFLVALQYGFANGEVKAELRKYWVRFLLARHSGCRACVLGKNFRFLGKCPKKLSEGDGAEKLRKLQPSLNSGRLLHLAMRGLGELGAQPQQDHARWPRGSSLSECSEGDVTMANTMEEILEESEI
The experiment in a line: GLP-2 receptor potency assay (cAMP AlphaScreen, HEK293 cells stably expressing GLP-2R). It is filed as cell-based. The note with it: cAMP response, HEK293 cells expressing human GLP-2R. An outline of the steps: (§1)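 EC50 and maximal response were fitted with a 4PL model after normalization to positive control and vehicle. cAMP accumulation was quantified by AlphaScreen in a stable HEK293 clone transfected with human GLP-2 receptor.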
A general note: In Alpha technology, singlet oxygen from a donor bead excites a nearby acceptor bead.

Series [3] deals with Normal chow-fed C57BL/6J male mice. The experiment in a line: Effect on fasting glucose and intestinal weight in normal mice. The class given is in vivo. How it is done: Normal chow-fed C57BL/6J male mice were used. The mice were kept in standard housing conditions, light-, temperature-, and humidity-controlled room (12:12 h light-dark cycle, with lights on at 06.00-18.00 h; 20-22° C.; 50-80% relative humidity). Each dosing group consisted of 6 animals. Mice were dosed once daily with 250 nmol/kg with the test compounds or vehicle for 4 days via subcutaneous administration.
On day 0 mice were fasted and blood glucose levels measured after a single s.c. injection with peptides. Animals were sacrificed 24 hours after final dosing on day 3, and small intestinal wet weights were measured.

The nature of series [4]: Solubility assessment by turbidity absorbance at 325 nm. The note with it: 1 mg/ml peptide. It is filed as physicochemical. How it is done:
A stock solution of the test peptide (2 mg/ml; determined from the weighed amount of peptide) in demineralized water adjusted to pH 2.5 with HCl was prepared, and aliquots were diluted 1:1 in 100 mM acetate buffer (pH 4.0 and pH 5.0), 100 mM histidine buffer (pH 6.0 and pH 7.0) and 100 mM phosphate buffer (pH 6.0, pH 7.0 and pH7.5), respectively, and loaded in a standard flat-bottom, non-sterile 96-well UV Microplate. The absorbance of samples (single samples, n=1) at 280 and 325 nm was measured in an absorbance-based plate reader, which was preheated to ambient temperature (typically 25° C.).

The next series concerns the target T2, human GLP-1 receptor (Homo sapiens, UniProt P43220).
T2 construct: expressed in transfected cells
The series is described as follows: GLP-1 receptor potency assay (cAMP AlphaScreen, HEK293 cells stably expressing GLP-1R). It is filed as cell-based. An outline of the steps:
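cAMP accumulation was quantified by AlphaScreen in G418-selected HEK293 cells stably transfected with human GLP-1R cDNA. Concentration-response data were normalized between vehicle and positive control. EC50 and maximal response came from 4PL curve fitting.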

Series [5] deals with T3, human GLP-2 receptor (Homo sapiens, UniProt O95838).
T3 sequence (O95838 1-553 D470N): T1 sequence (O95838 1-553 D470N)
The experiment in a line: GLP-2 receptor potency assay (cAMP AlphaScreen, HEK293 cells stably expressing GLP-2R). It is filed as cell-based. An outline of the steps: as §1

A short description of series [6]: Chemical stability, RP-HPLC main peak area-% after incubation at 40° C. It is filed as physicochemical. Particulars: pH 7, 40° C., 14 day incubation, 0.2 mg/ml, normalized purity. As to the method: Samples of each test peptide were dissolved in MilliQ™ water, and the pH of the solution was adjusted to pH 6, 7, 7.5 or 9 using either HCl or NaOH. The final peptide concentration was 0.2 mg/ml. Samples were placed in glass vials and incubated at 40° C. The samples were analyzed by RP-HPLC on a C18 column with gradient elution using an acetonitrile/TFA/water eluent system. The area-percentage (area-%) of the main peak after incubation time T=t (relative to time T=0) was determined by UV spectroscopy at 220 nm.
The purity was first determined as follows: Purity (area-%)=(area of main peak/total area of all peaks)×100.
The purity was then normalized between time points by setting purity at time 0 (T=0) to 100 for each pH value for a given peptide, as follows: Normalised area-% at time t (T=t)=[area-% (T=t)/area-% (T=0)]×100.
The chemical stability assessment results after 14 day incubation (in the form of normalized purity values) are summarized in Table 4.

Read-outs that look alike come from different tables or passages of the source. Square brackets hold non-standard residues; d marks the D form. Peptide text beside a SMILES is read from it. Aib = CC(C)(N)C(=O)O Where only a bound is given, the exact number is not on record here.

In general, EC50 refers to the concentration at which the effect is half-maximal. Usually solubility stands for the dissolved amount per volume that the medium holds.

T2 sequence (P43220 24-463): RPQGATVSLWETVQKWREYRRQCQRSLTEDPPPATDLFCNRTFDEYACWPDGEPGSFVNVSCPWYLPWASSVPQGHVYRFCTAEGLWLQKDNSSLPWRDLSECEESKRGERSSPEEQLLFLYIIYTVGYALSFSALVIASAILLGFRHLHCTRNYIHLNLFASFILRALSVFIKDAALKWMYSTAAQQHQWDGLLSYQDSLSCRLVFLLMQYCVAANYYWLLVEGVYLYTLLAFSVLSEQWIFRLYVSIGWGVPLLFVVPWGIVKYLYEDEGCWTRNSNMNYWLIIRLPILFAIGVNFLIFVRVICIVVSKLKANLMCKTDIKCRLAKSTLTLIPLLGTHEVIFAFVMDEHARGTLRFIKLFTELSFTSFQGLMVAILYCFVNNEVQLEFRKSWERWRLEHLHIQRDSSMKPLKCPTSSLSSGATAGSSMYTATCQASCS

Molecule Liraglutide (NN2211; Victoza) (peptide) registered an EC50 GLP-1 (nM); cAMP AlphaScreen in series [1] of 0.029 nM.

For the molecule `CC[C@H](C)[C@H](NC(=O)[C@H](Cc1ccccc1)NC(=O)[C@H](CC(=O)O)NC(=O)[C@H](CCCNC(=N)N)NC(=O)[C@H](C)NC(=O)[C@H](C)NC(=O)[C@H](CCC(N)=O)NC(=O)[C@H](CCC(=O)O)NC(=O)[C@H](CC(=O)O)NC(=O)[C@H](CC(C)C)NC(=O)[C@@H](NC(=O)[C@@H](NC(=O)[C@H](C)NC(=O)[C@H](CC(C)C)NC(=O)[C@H](CCC(=O)O)NC(=O)[C@H](CO)NC(=O)[C@@H](NC(=O)[C@H](Cc1ccccc1)NC(=O)[C@@H](NC(=O)CNC(=O)[C@H](CCC(=O)O)NC(=O)C(C)(C)NC(=O)[C@@H](N)Cc1c[nH]cn1)[C@@H](C)O)[C@@H](C)O)[C@@H](C)O)[C@@H](C)CC)C(=O)N[C@@H](C)C(=O)N[C@@H](Cc1c[nH]c2ccccc12)C(=O)N[C@@H](CC(C)C)C(=O)N[C@H](C(=O)N[C@@H](CCC(=O)O)C(=O)N[C@@H](Cc1c[nH]cn1)C(=O)N[C@@H](CCCCN)C(=O)N[C@H](C(=O)N[C@H](C(=O)N[C@@H](CC(=O)O)C(=O)O)[C@@H](C)O)[C@@H](C)CC)[C@@H](C)CC` [Compound 5] (H-H[Aib]EGTFTSELATILDEQAARDFIAWLIEHKITD-OH), the EC50 on human GLP-2 receptor [2] was 0.067 nM; at human GLP-1 receptor (cAMP response, HEK293 cells expressing human GLP-1R, read-out: EC50 GLP-1) it was 9.8 pM. Moreover, the “Small intestinal wet weight” value in series [3] (250 nmol/kg s.c. once daily for 4 days, sacrificed 24 hours after final dosing) was 0.90 g. In series [3] (day 0, fasted mice, after a single s.c. injection, 250 nmol/kg), this molecule displayed a Fasting blood glucose of 5.43 mM. The solubility in series [4] (100 mM acetate buffer pH 4.0, ambient temperature, read-out: Solubility, Acetate buffer pH 4) was no less than 1000 µg/mL; in series [4] (100 mM acetate buffer pH 5.0, ambient temperature, read-out: Solubility, Acetate buffer pH 5), less than 1000 µg/mL; in series [4] (100 mM histidine buffer pH 6.0, ambient temperature, read-out: Solubility, Histidine buffer pH 6), no less than 1000 µg/mL; in series [4] (100 mM histidine buffer pH 7.0, ambient temperature, read-out: Solubility, Histidine buffer pH 7) it was no less than 1000 µg/mL; in series [4] (100 mM phosphate buffer pH 6.0, ambient temperature, read-out: Solubility, Phosphate buffer pH 6) it was no less than 1000 µg/mL; in series [4] (100 mM phosphate buffer pH 7.0, ambient temperature, read-out: Solubility, Phosphate buffer pH 7) it was no less than 1000 µg/mL. Further, the solubility in series [4] (100 mM phosphate buffer pH 7.5, ambient temperature, read-out: Solubility, Phosphate buffer pH 7.5) was no less than 1000 µg/mL.

With `CC[C@H](C)[C@H](NC(=O)[C@H](CC(C)C)NC(=O)[C@H](Cc1c[nH]c2ccccc12)NC(=O)[C@H](C)NC(=O)[C@@H](NC(=O)[C@H](Cc1ccccc1)NC(=O)[C@H](CCC(=O)O)NC(=O)[C@H](CCCNC(=N)N)NC(=O)[C@H](CO)NC(=O)[C@H](C)NC(=O)[C@H](CCC(N)=O)NC(=O)[C@H](CCC(=O)O)NC(=O)[C@H](CCC(=O)O)NC(=O)[C@H](CC(C)C)NC(=O)[C@@H](NC(=O)[C@@H](NC(=O)[C@H](CO)NC(=O)[C@H](CC(C)C)NC(=O)[C@H](CCC(=O)O)NC(=O)[C@H](CO)NC(=O)[C@H](CO)NC(=O)[C@H](Cc1ccccc1)NC(=O)[C@@H](NC(=O)CNC(=O)[C@H](CCC(=O)O)NC(=O)C(C)(C)NC(=O)[C@@H](N)Cc1c[nH]cn1)[C@@H](C)O)[C@@H](C)O)[C@@H](C)CC)[C@@H](C)CC)C(=O)N[C@@H](C)C(=O)N[C@@H](Cc1c[nH]cn1)C(=O)N[C@@H](CCCCN)C(=O)N[C@H](C(=O)N[C@H](C(=O)N[C@@H](CCC(=O)O)C(=O)O)[C@@H](C)O)[C@@H](C)CC` [Compound 39] (H-H[Aib]EGTFSSELSTILEEQASREFIAWLIAHKITE-OH), the EC50 on human GLP-2 receptor [5] came to 0.96 nM; at human GLP-1 receptor, 30 pM.

Take “H-HGEGTFTSELATILDEQAARDFIAWLIAHKITD-OH [Compound 38]”: the EC50 on human GLP-2 receptor [5] worked out at 0.043 nM; on human GLP-1 receptor, 8 pM. The “pH 7 normalised stability” value in series [6] is “C (<80% normalized stability)”.

The record behind these values is patent US11130793B2, “GLP-1/GLP-2 dual agonists” (Zealand Pharma A/S, priority 2016, dated 2021).
